Reference: patent publication US8354430B2, “Monohydrochloride salt of 1-[3-[3-(4-chlorophenyl) propoxy]propyl]-piperidine” (priority 2005, dated 2013)

How the values were obtained:
[1] = Stability to oxidation conditions (melting points under nitrogen and oxygen atmosphere); assay type: physicochemical
Experimental: Melting points of the above salts were also determined under nitrogen and oxygen atmosphere, in order to verify their stability to oxidation conditions.

[2] = physchem
[3] = Aqueous solubility at 23° C.; assay type: physicochemical; settings: water
Description: The use of 1-[3-[3-(4-chlorophenyl)propoxy]propyl]-piperidine as the free base is limited because of its oily nature.

[4] = Solubility of salts in water at room temperature, pH 4.5 and pH 7.4
[5] = tested on: mice; assay: Natural forgetting, two-trial object recognition; assay type: in vivo, mouse; settings: tacrine 0.25 mg/kg, i.p. after T1
Experimental: Methods: Mice were submitted to the first trial (T1), placed in the box containing two identical objects and the time required by each animal to complete 8 sec of object exploration was determined. Exploration was considered to be directing the nose at a distance closer than 2 cm to the object and/or touching the object. Immediately after the first trial mice were treated with the vehicle or tacrine (0.25 mg/kg, i.p.). […] Mice were placed in the box for 5 min and exploration of each object together with motor activity was determined. The following parameters were measured: […]

Compound | Melting point, N2 atmosphere (stability to oxidation conditions) [1] [°C] | Melting point, O2 atmosphere (stability to oxidation conditions) [1] [°C] | solubility ([2]; pH 4.5, aqueous buffer) [mg/mL] | solubility ([2]; pH 7.4, aqueous buffer) [mg/mL] | solubility ([2]; water) [mg/mL] | solubility [3] [mg/mL] | Solubility (% w/v) pH 4.5 ([4]; pH 4.5) [% w/v] | Solubility (% w/v) pH 7.4 ([4]; pH 7.4) [% w/v] | Solubility (% w/v) Water room T ([4]; water at room temperature) [% w/v] | natural forgetting [5]
Clc1ccc(CCCOCCCN2CCCCC2)cc1.O=C(O)C(=O)O [Hydrogen oxalate, 1-[3-[3-(4-chlorophenyl)propoxy]propyl]-piperidine oxalate, reference compound] | 149.16 | 149.28 | 10 to 30 | 30 to 100 | 10 to 30 | 25 | – | – | – | –
Clc1ccc(CCCOCCCN2CCCCC2)cc1 [Hydrogen succinate] | 63.21 | 63.46 | – | – | – | – | >100 | >100 | >100 | –
Nc1c2c(nc3ccccc13)CCCC2 [tacrine, reference compound] | – | – | – | – | – | – | – | – | – | significantly reduced
Hydrogen maleate | 90.85 | 90.74 | – | – | – | – | – | – | – | –
